# Where two headings read alike, the source gives them in different places.
# Experiments:
# pAKT in BT474 cells = test: Cell-based pAKT HTRF assay in BT474 cells; conditions: BT474 cells, 4 hr incubation, read-out: pAKT inhibition IC50 in BT474 cells
# Protocol: On Day 1, cells were seeded into 96-well plates at 2.5×10^4 cells/well in complete growth media (DMEM, 10% FBS). On Day 2, cells were treated with compounds at 0.25% DMSO. The source plate was created with compounds diluted in media at 5-fold the final assay concentration. The compounds are run in a 9-point concentration curve starting at 3 μM, with a 3-fold dilution between concentrations. 20 μL was transferred onto the cell plates (final volume in wells was 100 μL). Plates were harvested after 4 hr incubation by aspirating media and adding kit-supplied 1× supplemented lysis buffer to all wells (75 μL per well). Plates were then placed on a plate shaker and incubated at 850 rpm for an additional 30 min. The antibody mixture solution was prepared by diluting aliquoted d2 and Eu Cryptate antibodies 1:20 in kit supplied detection buffer, then mixed the diluted antibodies solutions (1:1 v:v). 4 μL of this solution was then added to a 384-well detection plate (Perkin Elmer; 6008230). Samples were homogenized by pipetting up and down and then transferred (16 μL of cell lysates) from the 96-well cell culture plate to two wells of the HTRF 384-well detection plate containing the antibody solution. Plates were centrifuged (524 g for 1 min) and allowed to incubate between 4 and 24 h at room temperature. The maximum signal is reached after 4 h incubation time and remains stable over a period of 24 hours. Therefore, readings can be made between 4 and 24 h of incubation. Plates were centrifuged again (524 g for 1 m), and analyzed on the EnVision plate reader using the following settings: Excitation 320 nm, Bandwidth […]; Emission 615 nm, Bandwidth […], Gain 10000, Flashes 100, Lag 60 μs.
# [1] = target: Cys242 in human PIK3CA (157-299) (Homo sapiens (Human), UniProt P42336); test: Covalent modification assay using MALDI-TOF MS; assay type: biochemical; conditions: 4 h reaction time point
# Sequence of Cys242 in human PIK3CA (157-299) (P42336 157-299): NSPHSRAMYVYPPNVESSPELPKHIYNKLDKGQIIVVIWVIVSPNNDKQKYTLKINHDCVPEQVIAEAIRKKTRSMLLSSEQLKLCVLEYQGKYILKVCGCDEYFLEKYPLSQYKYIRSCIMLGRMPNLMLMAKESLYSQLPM
# Protocol: Matrix-Assisted Laser Desorption Ionization-Time of Flight Mass Spectrometry (MALDI-TOF MS) analysis of covalent modification of Cys242 in human PIK3CA (157-299) was performed.
# Reaction: 3.33 μM or 1 μM of PIK3CA (157-299) protein (produced in-house by Protein Expression Laboratory, FNLCR/Leidos Biomed) in 20 mM HEPES buffer containing 150 mM NaCl, 2 mM MgCl2, pH 7.3 was prepared freshly before assay. Twelve-μL aliquots of protein were dispensed onto low volume 384-well plate, then 470 nL DMSO and 30 nL of tested compounds from 10 mM DMSO stocks were added to appropriate wells using ECHO 555 acoustic liquid handler (Labcyte Inc.). For each reaction/assay, three blanks were prepared by mixing 12 μL of protein solution with 500 nL DMSO. The wells content was carefully mixed by aspiration, and then the plate was sealed by an adhesive cover, centrifuged at 931 g for 1 minute, and kept in the dark at room temperature until 15 min, 30 min, 2 h, or 4 h collections.
# Targetpretreatment: Before each assay MALDI target (Bruker MPT 384 ground steel BC) was pre-treated by pipetting on each spot 0.75 μL of saturated sinapinic acid in acetonitrile (ACN).
# Sample preparation: At collection time point, 2 μL of reaction mixtures were pipetted out into […] MALDI matrix solution (saturated solution of sinapinic acid in 1:1 ACN:water solution containing 0.15% trifluoroacetic acid (TFA)) deposited on 384 well polypropylene plate. The resulting solution was mixed by aspiration, centrifuged at 931 g for 1 minute, then 1.5 μL aliquots were dispensed on pre-treated MALDI target using Beckman Coulter Biomek FX^P 96/384-Span-8 Laboratory Automation Workstation. Finally, the MALDI target was dried under a mild vacuum to produce spots with a fine crystalline structure.
# Measurements: MALDI-TOF measurements were performed on Bruker Daltonics rapifleX Tissuetyper TOF-TOF mass spectrometer using linear mode and mass ranging from 16.0 to 19.6 kDa. Detector gain was set to 0.64×(459 V), sample rate to 5 GS/s, real-time smoothing to medium (175 MHz), laser smart beam pattern was set to “Custom” single smartbeam beam scan with a scan range of 40 μm on both X and Y axis, and the laser frequency was 10000 Hz. Spectra were automatically collected using the custom AutoXecute method. Laser power was auto adjusted using fuzzy control. The peak selection range was set to be between 16.0 and 18.5 kDa. Peak evaluation uses a half-width parameter set to be smaller than 40 Da for processed spectrograms (centroid peak detection; smoothed by SavitzkyGolay algorithm using 7 m/z width and 2 cycles; baseline was subtracted using a median algorithm with flatness 1 and median level 0). Fuzzy control used Proteins/Oligonucleotides protocol with minimum half-width 1/10 times above threshold. Up to 40000 satisfactory shots were collected in 10000 short steps. Dynamic termination was implemented to finish data collection when the peak signal/noise ratio was reaching a value of 1000.
# Spectra processing: Spectra were smoothed by SavitzkyGolay algorithm using 7 m/z width and three cycles. Centroid peak detection algorithm was used with signal to noise threshold set to 6, relative intensity threshold 3%, peak width 10 m/z, and median baseline subtraction using flatness of 1 and the median level of 0.1. Peak intensity and area under the peak were evaluated and recorded for all peaks between 16.0 and 19.5 kDa.
# Calculation of percent modification: Percent modification was calculated as a ratio of peak height for protein modified by compound to the sum of the peak height of remaining protein plus peak height for protein modified by a compound. If multiple modifications were observed each was calculated as a ratio of peak height for given modification versus the sum of peak heights for all observed protein species.
# [2] = 3.33 μM protein target, 1:7.5 protein to compound ratio (compounds 1-852)
# [3] = 1 μM protein target, 1:5 protein to compound ratio (compounds 853-1279)
IC50 (pAKT in BT474 cells; Compounds 10-999),IC50 (pAKT in BT474 cells; Compounds 1000-1279),"IC50 (pAKT in BT474 cells; Homo sapiens, BT-474, Compounds 10-999)",Structure (SMILES),"% of modification [1, 2]","% of modification [1, 3]"
< 100 nM,–,–,"C=CC(=O)N1Cc2cc(-c3nc(-c4ccc5nn(C)cc5c4)c4ccsc4c3-c3c(F)cc(F)cc3OC[C@@H](C)O)nn2[C@@H](C)C1 [Compound 571, 1-((S)-2-((R)-7-(2,4-difluoro-6-((R)-2-hydroxypropoxy)phenyl)-4-(2-methyl-2H-indazol-5-yl)thieno[3,2-c]pyridin-6-yl)-7-methyl-6,7-dihydropyrazolo[1,5-a]pyrazin-5(4H)-yl)prop-2-en-1-one]",D (percent of modification <25%),–
100 to 1000 nM,–,–,C=CC(=O)N1CC(n2cc(-c3nc(-c4ccc5c(c4)CCNC5)c4ccsc4c3-c3ccc(F)cc3F)cn2)C1 [Compound 108],A (percent of modification of PIK3CA protein ≥75%),–
< 100 nM,–,–,C=CC(=O)N1C[C@H](C)n2nc(-c3nc(-c4ccc5ncn(C)c5c4)c4ccsc4c3-c3c(F)cc(F)cc3OCCOC)cc2[C@H]1C [Compound 604],A (percent of modification of PIK3CA protein ≥75%),–
< 100 nM,–,–,C=CC(=O)N1CCn2nc(-c3nc(-c4ccc5c(c4)CCNC5)c4ccsc4c3-c3ccc(F)cc3OC(F)F)cc2C1 [Compound 222],A (percent of modification of PIK3CA protein ≥75%),–
> 3000 nM,–,–,COc1cc(F)ccc1-c1c(-c2cnn(C3CN(C(=O)C(F)Cl)C3)c2)nc(-c2ccc3c(c2)CCNC3)c2ccsc12 (centres unmarked) [Compound 171],D (percent of modification <25%),–
< 100 nM,–,–,"C=CC(=O)N1Cc2cc(-c3nc(-c4ccc5c(c4)CCN(C)C5)c4ccsc4c3-c3c(F)cc(F)cc3OC(C)C)nn2C[C@H]1C [Compound 479, 1-((R)-2-((S)-7-(2,4-difluoro-6-isopropoxyphenyl)-4-(2-methyl-1,2,3,4-tetrahydroisoquinolin-6-yl)thieno[3,2-c]pyridin-6-yl)-6-methyl-6,7-dihydropyrazolo[1,5-a]pyrazin-5(4H)-yl)prop-2-en-1-one]",A (percent of modification of PIK3CA protein ≥75%),–
< 100 nM,–,–,"C=CC(=O)N1CCn2nc(-c3nc(-c4ccc5cn(C)nc5c4)c4ccsc4c3-c3c(F)cc(F)cc3OC[C@@H](C)O)cc2[C@@H]1C [Compound 770, 1-((S)-2-((S)-7-(2,4-difluoro-6-((R)-2-hydroxypropoxy)phenyl)-4-(2-methyl-2H-indazol-6-yl)thieno[3,2-c]pyridin-6-yl)-4-methyl-6,7-dihydropyrazolo[1,5-a]pyrazin-5(4H)-yl)prop-2-en-1-one]",A (percent of modification of PIK3CA protein ≥75%),–
100 to 1000 nM,–,–,C=CC(=O)N1CCc2ccc(-c3nc(-c4ccc5c(c4)CNC(=O)C5)c4ccsc4c3-c3ccc(F)cc3OC)cc2C1 [Compound 80],A (percent of modification of PIK3CA protein ≥75%),–
–,< 100 nM,–,C=CC(=O)N1CCc2cc(-c3nc(-c4cnc5c(cnn5C)c4)c4ccsc4c3-c3c(F)cc(F)cc3OCCOC)nn2CC1 [Compound 1023],–,A (percent of modification of PIK3CA protein ≥75%)
–,–,100 to 1000 nM,"C=CC(=O)N1CCn2nc(-c3nc(-c4cnn(C)c4)ccc3-c3ccc(F)cc3OC(C)C)cc2C1 [Compound 279, 1-[2-[3-(4-fluoro-2-isopropoxy-phenyl)-6-(1-methylpyrazol-4-yl)-2-pyridyl]-6,7-dihydro-4H-pyrazolo[1,5-a]pyrazin-5-yl]prop-2-en-1-one]",A (percent of modification of PIK3CA protein ≥75%),–
–,< 100 nM,–,C=CC(=O)N1CCc2cc(-c3nc(-c4ccc5cn(C)nc5c4)c4ccsc4c3-c3c(F)cc(F)cc3OCCOC)nn2CC1 [Compound 1027],–,A (percent of modification of PIK3CA protein ≥75%)
100 to 1000 nM,–,–,C=CC(=O)N1CCc2nc(-c3nc(N4CCN(C(C)C)C(=O)C4)c4ccsc4c3-c3ccc(F)cc3OCCOC)sc2C1 [Compound 176],A (percent of modification of PIK3CA protein ≥75%),–
< 100 nM,–,–,C=CC(=O)N1CCc2nc(-c3nc(-c4cnc(N)nc4)c4ccsc4c3-c3ccc(F)cc3OCCOC)sc2C1 [Compound 133],A (percent of modification of PIK3CA protein ≥75%),–

# Further lines, the molecule ahead of its results:
Structure (SMILES),IC50 (pAKT in BT474 cells; Compounds 10-999),IC50 (pAKT in BT474 cells; Compounds 1000-1279),"IC50 (pAKT in BT474 cells; Homo sapiens, BT-474, Compounds 10-999)","% of modification [1, 2]","% of modification [1, 3]"
C=CC(=O)N1Cc2cc(-c3nc(-c4cnc5c(c4)CNC(=O)C5)c4ccsc4c3-c3c(F)cc(F)cc3OCCOC)nn2[C@@H](C)C1 [Compound 688],< 100 nM,–,–,A (percent of modification of PIK3CA protein ≥75%),–
C=CC(=O)N1CCc2nc(-c3nc(-c4ccc5c(c4)CCN(C)C5)c4ccsc4c3-c3c(F)cc(F)cc3OC(CF)CF)sc2C1 [Compound 522],100 to 1000 nM,–,–,A (percent of modification of PIK3CA protein ≥75%),–
C=CC(=O)N1CCn2nc(-c3nc(N4CC(CC(=O)N(C)C)C4)c4ccsc4c3-c3c(F)cc(F)cc3OCCOC)cc2C1C (centres unmarked) [Compound 1039],–,> 1000 nM,–,–,A (percent of modification of PIK3CA protein ≥75%)
C=C(F)C(=O)N1CCn2nc(-c3nc(-c4ccc5c(c4)CCN(C)C5)c4ccsc4c3-c3ccc(F)cc3OC(C)C)nc2C1 [Compound 255],100 to 1000 nM,–,–,A (percent of modification of PIK3CA protein ≥75%),–
C=CC(=O)N1CCn2nc(-c3nc(-c4ccc5cnncc5c4)c4ccsc4c3-c3c(F)cc(F)cc3OCCO)cc2C1C (centres unmarked) [Compound 909],< 100 nM,–,–,–,A (percent of modification of PIK3CA protein ≥75%)
C=CC(=O)N1CCC(n2cc(-c3nc(-c4ccc5c(c4)CS(=N)(=O)C5)c4ccsc4c3-c3ccc(F)cc3OCCOC)cn2)CC1 (centres unmarked) [Compound 94],< 100 nM,–,–,A (percent of modification of PIK3CA protein ≥75%),–
C=CC(=O)N1CCc2ncc(-c3nc(-c4ccc5ncn(C)c5c4)c4ccsc4c3-c3c(F)cc(F)cc3OCCOC)cc2C1 [Compound 403],< 100 nM,–,–,A (percent of modification of PIK3CA protein ≥75%),–
C=CC(=O)N1CCn2nc(-c3nc(-c4ccc5c(c4)CN(C)CC54CC4)c4ccsc4c3-c3c(F)cc(F)cc3OCCO)cc2C1C (centres unmarked) [Compound 1114],–,< 100 nM,–,–,A (percent of modification of PIK3CA protein ≥75%)
C=CC(=O)N1CCc2sc(-c3nc(-c4ccc5c(c4)CCNC5)c4ccsc4c3-c3ccc(F)cc3OCCOC)nc2C1 [Compound 146],< 100 nM,–,–,A (percent of modification of PIK3CA protein ≥75%),–

# Source: US20250230138A1, “COMPOUNDS HAVING A T-STRUCTURE FORMED BY AT LEAST FOUR CYCLES FOR USE IN THE TREATMENT OF CANCER AND OTHER INDICATIONS” (TheRas, Inc., priority 2022, published 2025)
